# Laboratory results reported in article PMC8397425, “A Strategy to Conjugate Bioactive Fragments to Cytotoxic Diiron Bis(cyclopentadienyl) Complexes” (Organometallics, 2021).
# Where “and” joins values, the source holds several entries; their conditions need not be identical. Equal entries are not always repeated.
# How the values were obtained:
# [1] = test system: guanosine 5′-monophosphate (disodium salt, Na2[GMP]); experiment: Reaction with model nucleotide GMP (mass spectrometry); details: D2O/CD3OD, 1 equiv Na2[GMP], 24 h at 37 °C
# Experimental: The ability of [4]CF3SO3 and [9]CF3SO3 to interact with natural DNA was studied using the ethidium bromide (EB) exchange test (Figure 6), with the concentration of the complexes beingin the 1.5–124 μM range for [4]CF3SO3 and 1.4–135 μM for [9]CF3SO3. Blank experiments were carried out with the two bioactive molecules and also with DMSO to check for solvent/dilution effects. […] However, EB exchange titrations are suitable to recognize fast noncovalent binding events, but not subsequent slow covalent binding. Therefore, since chlorambucil is a DNA-alkylating agent, we studied the possible reaction of [9]CF3SO3 with the nucleotide guanosine 5′-monophosphate (disodium salt, Na2[GMP]; see Figure 4) as a model for DNA binding. Complex [9]CF3SO3 was incubated with a D2O/CD3OD mixture containing GMP for 24 h at 37 °C.
# In order to analyze the interaction with a model nucleotide, a freshly prepared solution of [9]CF3SO3 (2 mg) in D2O/CD3OD (5/3 v/v) was treated with 1 equiv of anhydrous Na2[GMP]. The resulting mixture was maintained at 37 °C for 24 h, and then the final solution was filtered in order to remove some solid and analyzed by mass spectrometry. HPLC-MS(+): m/z found 1087.2451 [9^GMP + Na]^+, calcd for C47H53Fe2N8NaO12P 1087.2117; m/z found 555.0666 [9^GMP + 2Na]^2+, calcd for C47H53Fe2N8Na2O12P 555.1008. The isotopic patterns fit well the calculated patterns.
# [2] = test system: Human Ovarian Carcinoma (A2780) cell line; experiment: MTT cytotoxicity, A2780; type: cell-based; details: for IC50: 72 h exposure, MTT, mean ± SD
# From the text: Human ovarian carcinoma (A2780 and A2780cisR) cell lines were obtained from the European Collection of Cell Cultures. The Human Embryonic Kidney 293T (HEK 293T) cell line was obtained from the ATCC (Sigma, Buchs, Switzerland). Penicillin–streptomycin, RPMI 1640 GlutaMAX (where RPMI = Roswell Park Memorial Institute), and DMEM GlutaMAX media (where DMEM = Dulbecco’s modified Eagle medium) were obtained from Life Technologies, and fetal bovine serum (FBS) was obtained from Sigma. The cells were cultured in RPMI 1640 GlutaMAX (A2780 and A2780cisR) and DMEM GlutaMAX (HEK 293T) media containing 10% heat-inactivated FBS and 1% penicillin–streptomycin at 37 °C and CO2 (5%). The A2780cisR cell line was routinely treated with cisplatin (2 μM) in the media to maintain cisplatin resistance. The cytotoxicity was determined using the 3-(4,5-dimethyl-2-thiazolyl)-2,5-diphenyl-2H-tetrazolium bromide (MTT) assay.[42] Cells were seeded in flat-bottomed 96-well plates as a suspension in a prepared medium (100 μL aliquots and approximately 4300 cells/well) and preincubated for 24 h. Stock solutions of compounds were prepared in DMSO and were diluted in the medium. The solutions were sequentially diluted to give a final DMSO concentration of 0.5% and a final compound concentration range of 0–200 μM. Cisplatin was tested as a positive (0–100 μM) control. The compounds were placed in the preincubated 96-well plates in 100 μL aliquots, and the plates were incubated for a further 72 h. MTT (20 μL, 5 mg/mL in Dulbecco’s phosphate buffered saline) was placed in the cells, and the plates were incubated for a further 4 h. The culture medium was aspirated, and the purple formazan crystals, formed by the mitochondrial dehydrogenase activity of vital cells, were dissolved in DMSO (100 μL/well). The absorbance of the resulting solutions, directly proportional to the number of surviving cells, was quantified at 590 nm using a SpectroMax M5e multimode microplate reader (using SoftMax Pro software, version 6.2.2). The percentage of surviving cells was calculated from the absorbance of wells corresponding to the untreated control cells. The reported IC50 values are based on the means from two independent experiments, each comprising four tests per concentration level.
# [3] = Octanol–water partition coefficient (shake-flask, UV–vis); type: physicochemical; details: T = 21 °C
# Experimental: The solubility of the complexes in D2O was assessed using ^1H NMR spectroscopy (see Table 1 and the Experimental Section for details). […] Data from the literature for the related nonfunctionalized complexes [2′,3′]CF3SO3 are compiled in Table 1 for comparison.[11] The octanol–water partition coefficients (Log Pow) were measured using a UV–vis method and fall within the −0.2 to +1.2 range (Table 1). […] For instance, Log Pow values of 1.07 and 0.65 are obtained for the geometric isomers [9]CF3SO3 and [10]CF3SO3, respectively. […]
# Determination of partition coefficients (Log P ow)
# Partition coefficients ( Pow; IUPAC: K D partition constant, 7,8 defined as Pow = corg/caq, where corg and caq are the molar concentrations of the selected compound in the organic and aqueous phases, respectively, were determined by the shake-flask method and UV-Vis measurements. 9 Values of Log Pow for diiron complexes are compiled in Table 2. All the operations were carried out at 21±1 °C. De -ionised water and 1-octanol were mixed and vigorously stirred for 24 hours at room temperature to allow saturation of both phases, then separated by centrifugation and used for the following experiments. A solution of the selected Fe compound in the organic phase (V = 5 mL) was prepared and its UV-Vis spectrum was recorded. An aliquot of the solution (Vorg = 1.5 mL) was then transferred into a test tube and the aqueous phase (Vorg = Vaq = 1.5 mL) was added. The mixture was vigorously stirred for 20 minutes and the resulting emulsion was centrifuged (5000 rpm, 10’). […]
# the organic phase was recorded. The procedure was repeated three times for each compound. The partition coefficient was then calculated as PPow = AorgA0,org − Aorg, where A0,org and Aorg are the absorbance values in the organic phase, respectively before and after mixing with the aqueous phase. 9 UV-Vis measurements were carried out using 1 cm PMMA cuvettes. The wavelength of the maximum absorption of each compound was used for UV-Vis quantification.
# A2780 cells = experiment: Intracellular ROS production, DCFH-DA assay; type: cell-based, human; details: for ROS production compared to H2O2 positive control: 10 μM compound vs H2O2 100 μM, 24 h; for intracellular ROS levels: 10 μM, up to 24 h, DCFH-DA fluorescence
# Experimental: In order to shed light on the possible mechanism of action of the biofunctionalized diiron complexes, a series of complementary studies were performed. It was previously shown that the diiron vinyliminium structural motif induces ROS production, possibly associated with more than one mechanism: (1) monoelectron reduction of the complex favored by its net cationic charge; (2) fragmentation into a monoiron derivative and atomic iron; […] After overnight incubation, the cells were treated following the manufacturer’s protocol. […] Stock solutions of compounds were prepared as described above; cells incubated with equal amounts of DMSO in supplemented RPMI were used as a control. The fluorescence was measured up to 24 h with an excitation wavelength of 485 nm and with a 535 nm emission filter by Multilabel Counter (PerkinElmer, Waltham, MA, USA). The measurements were performed in triplicate, and results were reported as mean ± SD. Statistical differences were examined using one-way analysis of variance (ANOVA), and a Tukey test was used for post hoc analysis.
Log Pow [3],Substance,conversion into the neutral GMP adduct 9^GMP [1],IC50 [2],selectivity (SI) ([2]; HEK 293T relative to A2780),ROS production compared to H2O2 positive control (A2780 cells),intracellular ROS levels (A2780 cells)
1.07 and 1.07 ± 0.05,[Fe2Cp2(CO)(μ-CO){μ-η^1:η^3-Cγ(3-C6H4NHC(=O)(CH2)3C6H4N(CH2CH2Cl)2)CβHCαNMe2}]CF3SO3 [[9]CF3SO3],almost complete conversion,1800 ± 300 nM,5,ROS production higher than that recorded for H2O2,Significant intracellular ROS levels
1.06 ± 0.04,[Fe2Cp2(CO)(μ-CO){μ-η^1:η^3-Cγ(3-C6H4OC(=O)C6H4OC(=O)Me)CβHCαNMe(Xyl)}]CF3SO3 [[4]CF3SO3],–,2800 ± 400 nM,–,ROS production higher than that recorded for H2O2,Significant intracellular ROS levels
